In general, melting point refers to the temperature, or range, at which the solid turns liquid. Take `CC1CCN2C(=N1)C(=O)c1cc(S(=O)(=O)N3CCCC3)ccc12` (configuration not stated): the melting point was 152 to 153 °C. With `O=C(C[C@H](C(=O)N[C@H](CO)Cc1ccccc1)n1cc(-c2ccc(-c3ccccc3)cc2)cn1)OCc1ccccc1` the figure was 116 to 117 °C; with `COCOc1ccc(-c2ncc3ncc(NC(=O)c4cccnc4)cc3n2)cc1`, 232 °C; with `CN1CCC(N(C)S(=O)(=O)c2ccc(Nc3nc(Cl)cc(Nc4ccc(F)cc4)n3)cc2)CC1`, 140 to 142 °C. The figure for `CCCCCCCCCCCCCCCC(=O)OCc1ccco1` is 31 to 33 °C; for `c1ccc(Nc2nc3ccccc3n3cc(-c4ccccc4)cc23)cc1` it is 172 °C; for `O=C(O)C1CNC(C(=O)O)c2[nH]c3ccc(F)cc3c21` (configuration not stated) it is 233 to 234 °C. The figure for `CCCCNS(=O)(=O)CC(O)C(O)C(CC1CCCCC1)NC(=O)c1cccnc1` (configuration not stated) is 61 to 64 °C; for `OCc1csc(Nc2ccccc2)n1` it is 115 to 118 °C; for `CCCCCc1c(/C=C/C(=O)Oc2ccc([N+](=O)[O-])cc2)sc2cc(OC)ccc12` it is 111 to 113 °C. In the case of `O=C1Nc2ccccc2C12CCC2`, the melting point was 140 to 145 °C. `CCOC(=O)C1(NC(=O)OCc2ccccc2)CC(=O)NC1=O` (configuration not stated): the melting point fell in the range of 105 to 106 °C. The figure for `CC(C)c1nc(-c2ccccc2)c(C(C)C)c(-c2ccc(F)cc2)c1CO` is 244 to 246 °C; for `O=C(C=Cc1ccc(-c2ccc3ncnc(Nc4ccc(OCc5cccc(F)c5)c(Cl)c4)c3c2)s1)NOC1CCCCO1` (configuration not stated) it is 166 °C. Take `Cc1cccc(N(CC(=O)OC(C)(C)C)C(=O)CN2C(=O)c3ccccc3C2=O)c1`: the melting point came out at 166 °C. With `O=C1NOCc2ccccc21` the figure was 123 to 125 °C.

Take `CC(C)CCCOc1c(-c2ccc(S(C)(=O)=O)cc2)cnn(-c2ccc(F)cc2)c1=O`: the melting point lay within 123 to 125 °C. With `CC(=O)c1cnccc1NC(=O)C(C)(C)C` the figure was 95 °C; with `COc1cc2c(cc1OC)C(=O)C(CC=O)C2` (racemic), 122 °C. The figure for `COc1c(Cl)ccc(Cl)c1C(=O)NO` is 150 °C. With `COc1ccc([C@@H]2O[C@H](CCC(=O)O)C(=O)N(Cc3ccccc3)c3ccccc32)cc1` (relative stereo) the figure was 107 to 109 °C. With `CCc1ccc(S(=O)(=O)Nc2ccccc2/C=C/c2ccncc2)cc1`, the melting point was in the range of 232 to 234 °C. The figure for `N[C@@H]1CCc2c(ccc(OCc3ccccc3)c2CO)[C@H]1O` (relative stereo) is 148 to 150 °C; for `Cc1c(O)cnn(C(C)(C)C)c1=O` it is 236 to 239 °C; for `CCC(COC)(OC)c1cccc(OCOC)c1` (configuration not stated) it is 74 to 75 °C. With `CCOP(=O)(/C=C/c1cn(-c2ccccc2)nc1OCc1ccc(OCc2nc(-c3ccccc3)oc2C)c(OC)c1)OCC` the figure was 92 to 93 °C; with `Oc1nc2cc(Cl)c3nc(C(F)(F)F)[nH]c3c2nc1O`, more than 300 °C; with `Cc1nnc(-c2ccccc2)n1-c1ccccc1`, 163 °C. With `CCCCCCCCCCCCCCOc1ccc(N(CC(=O)O)CC(=O)O)cc1OCCCCCCCCCCCCCC` the figure was 89 to 93 °C; with `CC(C)(CCCCCCNS(=O)(=O)c1ccc(Cl)cc1)C(=O)O`, 95 to 96 °C. For `O=C1CCc2c([nH]c3ccc(Cl)cc23)C1`, the melting point lay within 194 to 196 °C. The figure for `COc1cc(Nc2nccc(-c3ccc(N4CCN(CCO)CC4)nc3)n2)cc(OC)c1OC` is 156 to 157 °C; for `O=[N+]([O-])c1ccccc1Oc1ccc(OCc2ccc(F)c(F)c2)cc1` it is 74 to 75 °C. The compound `COc1ccc(C(=O)NNC(C)=O)cc1` had a melting point of 146 to 148 °C. With `Nc1cc(F)ccc1Nc1ccccc1` the figure was 83 to 84 °C; with `O=C(CS)N[C@@H](Cc1c[nH]cn1)C(=O)O`, 198 to 200 °C; with `CCOC(=O)CN1CCN(Cc2cnc(-c3cc4cccc(N(C)S(=O)(=O)c5cccs5)c4[nH]3)s2)CC1`, 167 to 169 °C.

Compound `CCCc1c2occ(C(=O)O)cc-2c(=O)c2cc(C(=O)O)sc12` gave a melting point of more than 250 °C. With `FC(F)(F)c1nc(-c2ccccc2)c(-c2ccccc2)s1` the figure was 94 to 97 °C; with `COc1cc(OC)nc(NC(=O)NS(=O)(=O)c2ncccc2CSC)n1`, 145 to 147 °C; with `CNS(=O)(=O)Cc1ccc2[nH]ccc2c1`, 127 to 129 °C. With `Cc1cc(OCc2ccc(-c3ccc(C(F)(F)F)cc3)nc2C)ccc1SCC(=O)O` the figure was 168 to 169 °C; with `CC1C(=O)N(CC(N)=O)C(C)(C)N1C(=O)CN` (configuration not stated), 118 °C; with `COc1ccc(C(=O)Nc2cc(-c3c(-c4cccc(C)c4)nc4cccnn34)ccn2)cc1`, 177 to 178 °C. With `Nc1ncc(S(=O)c2cccnc2)s1` (configuration not stated) the figure was 178 to 179 °C. `COC(=O)CC1C(=O)Nc2cc(S(N)(=O)=O)sc2S1(=O)=O` (configuration not stated): the melting point was 223 to 225 °C. The figure for `CCOC(=O)C1=C(CO)NC(C)=C(C(=O)OCCOCc2ccccc2)C1c1cccc([N+](=O)[O-])c1` (configuration not stated) is 112 to 114 °C. With `Cn1ncc2c1-c1c(Cc3ccccc3)sc(C(=O)O)c1CC2` the figure was more than 300 °C. With `Ic1nnnn1C1CCCC1` the figure was 119 °C; with `O=C(O)Cc1c(C(=O)O)c2cc(Oc3cc(Cl)cc(Cl)c3)ccc2n1-c1ccc(OC(F)(F)F)cc1`, 219 to 223 °C. In turn, `NC(=O)N(O)CCNC(=O)c1ccc(Oc2ccccc2)cc1` came in with a melting point of 185 to 186 °C. The figure for `Cc1ccc(C)c2c1CN(NC(=S)NC(=O)c1ccccc1)C2` is 163 to 164 °C; for `O=Cc1cccc2cncn12` it is 138 to 140 °C.

For the compound `CC(=O)c1ccc2nccc(OS(=O)(=O)C(F)(F)F)c2c1`, the melting point turned out to be 94 °C. With `CCCCc1nc2cccnc2n1Cc1ccc2c(Cl)c(C(=O)O)sc2c1` the figure was more than 260 °C; with `O=C(OCc1ccccc1)N1CCN2c3ccc([N+](=O)[O-])cc3OCC2C1` (configuration not stated), 138 to 140 °C. `Cc1cn(-c2cc(C#N)cc(C(F)(F)F)c2)cn1` came in with a melting point of 127 to 128 °C. The compound `O=C(C1=NC=CC(Br)(C(=O)Nc2ccccc2)C1)c1ccccc1` (configuration not stated) had a melting point of 137 to 138 °C.

As to `Nc1c2c(nc3ccccc13)C1CCC2C1` (configuration not stated), the melting point lay within 185 to 186 °C. With `O=c1[nH][nH]c(=O)c(-c2c(F)cc(F)cc2F)c1-c1ccc(Br)cc1` the figure was 134 to 137 °C; with `O=C(Nc1ccc2[nH]c(=O)oc2c1)C(=O)N1CCC(Cc2ccc(F)cc2F)CC1`, 191 °C.

On to `CCOC(=O)C1=C(COCC(C)O)NC(C)=C(C(=O)OC)C1c1cccc(Cl)c1Cl` (configuration not stated), for which the melting point is 110 to 113 °C. The figure for `CNc1nnc(C(C)(C)C)s1` is 79 to 81 °C; for `Clc1ncc(Cl)n2ccnc12` it is 102 °C. The compound `CC(C)[Si](C)(C)CCCSCCCNC(=O)n1cc(F)c(=O)[nH]c1=O` displayed a melting point of 101 to 102 °C. The figure for `COc1cc(Cl)c(C=O)c(Cl)c1` is 107 to 109 °C. The figure for `CSC(=N)NS(=O)(=O)CCl` is 60 to 62 °C; for `Cc1ccc(Cc2cnc(NCCCCc3ncc(Br)cc3N)[nH]c2=O)cn1` it is 196 to 197 °C; for `CCc1cc(NC(=O)C(CSC(C)=O)Cc2ccccc2)cc(C(=O)O)c1` (configuration not stated) it is 175 to 177 °C.

`NN=C(N)Nc1c(Cl)cccc1Cl`: the melting point was determined as 281 °C. With `O=C1C=C(CC2CCCC(C(F)(F)F)C2)C(=O)c2ccccc21` (configuration not stated) the figure was 65 °C; with `Cc1nc(-n2ccc(OCc3ccccn3)cc2=O)sc1C(=O)NCc1ccccc1`, 202 to 205 °C. The figure for `NNc1nnc(C(=O)C(F)(F)F)nc1-c1ccccc1` is 193 to 194 °C.

For `O=C(Oc1ccccc1)OC1C2=C(SCCS2)C(=O)N1c1ccc(Cl)cn1` (configuration not stated), the melting point turned out to be 178 °C.

Take `CCCNc1c(C#N)cnn1-c1ccc(OC(F)(F)F)cc1Cl`: the melting point worked out at 63 °C. The figure for `CC#CCNC(=NC#N)SC` is 180 to 183 °C; for `CCCC1=C(C(=O)OCC)C(c2ccccc2N)c2c[nH]nc2N1` (configuration not stated) it is 179 °C; for `CCCc1nc2c(N)nc3ccc(N)cc3c2s1` it is 190 to 192 °C.

For `CCCCCCNC(=O)NC1CCCc2sccc21` (configuration not stated), the melting point was 122 to 124 °C.

`COC(=O)CCc1ccc(NC(=O)C(COC2CCCCO2)NS(=O)(=O)c2ccc(Cl)cc2)cc1` (racemic): the melting point fell in the range of 102 to 107 °C. `CCCCNc1c(C(=O)OCC)cnc2onc(C)c12`: the melting point was found to be 60 °C. As for `Nc1ncc(CCCCc2ccccc2)c(N)n1`, the melting point was 126 to 127 °C. The figure for `Cc1c(Sc2ccc(Cl)cc2)nn(-c2ccc(Cl)cc2)c(=O)c1C#N` is 177 to 179 °C; for `CCS(=O)(=O)Nc1ccc(OC(=O)NC)cc1C` it is 146 to 148 °C; for `O=C(c1ccc(O)c(Cl)c1Cl)c1ccnn1Cc1ccccc1` it is 131 to 133 °C. With `Cc1ccc(S(=O)(=O)OC2=C(Br)C(=O)c3ccc4c(c3C2=O)C=CC(C)(C)O4)cc1` the figure was 182 to 184 °C; with `CC(=O)Nc1ccc(C(=O)NC(=O)N2CCC(Cc3ccc(F)cc3)CC2)cc1`, 156 to 171 °C. With `COc1cc(C=CC(=O)c2c(OCC=C(C)C)ccc3c(=O)c4ccccc4oc23)cc(OC)c1OC` the figure was 153 to 155 °C; with `CCc1[nH]n(C2CCCC2)c2nc(-c3ccccc3C(F)(F)F)nc(=O)c1-2`, 201 to 202 °C. `CCOC(=O)c1c(O)c(Br)c(Br)n1Cc1ccccc1` had a melting point of 107 to 108 °C. For `Nc1nc2c(OCCO)cccc2o1`, the melting point fell in the range of 124 to 126 °C.

`CSC1=Nc2ccccc2N2CCN(c3ccccc3)CCN12` showed a melting point of 125 to 127 °C.

The record behind these values is a melting point compilation (Tetko et al.; mined from patent text by program, amines drawn as free bases though some values may be those of a salt).
